For experiment [1], the system named is mouse melanoma B16HM cell line. In words: In vitro invasiveness assay through Matrigel membrane. The experiment is classed as cell-based. The settings on record: PCI 50 μg/mL. As for the experimental part:
In this test, with the aim of determining whether the PCI causes some difference in the invasive capacity of tumoral cells in vitro, the number of cells which had migrated through a membrane of Matrigel© in presence or absence of PCI in the culture medium was determined. The detailed protocol is as follows:
1. The wells of Matrigel© which are going to be employed are placed at room temperature on an empty plate of 24.
2. The wells are hydrated by adding […] of tempered full medium and kept for 1.5-2.0 h.
3. After the hydration, take the medium carefully out of the wells; later on, 200,000 cells are added to two wells, respectively. In one of them, we will add the medium in which the cells grow and in the other, medium with PCI.
4. After 17 h of culture in an incubator at 37° C., 90% of relative humidity and 5% of CO2, the samples are processed as follows:
4.11. Look at the microscope and count the number of cells that have migrated through the Matrigel filter.
The invasiveness tests in vitro were carried out with the mouse melanoma B16HM cell line selected as previously described (Barberàr-Guillem, E. et al. (1988) Invasion Metastasis, 8: 266-284). The wells were placed with medium in absence of PCI (control) and in presence of PCI, at a concentration of 50 μg/mL. […]

The subject of experiment [2] is tumors of human pancreatic adenocarcinoma cell line Capan-1. In words: Tests with athymic mice, subcutaneous Capan-1 tumors. The experiment is classed as in vivo, nude mice. Set-up: key to SGD class: SGD < 1 expressed as −; >expressed +; <3 expressed as +++. Conditions: for Duplication time (days) of the tumor: daily 100 μL into the tumor, 32 days (control 4.32). As to the method:
With the aim of evaluating the sensitivity to PCI of induced human tumors, studies were carried out with nude mice. Human pancreatic adenocarcinoma cells Capan-1 were inoculated in these mice subcutaneously and once the tumor reached a minimum size of 3×3 mm2, a daily treatment begun, also subcutaneous, with different doses of PCI for 32 days. The following materials were employed:
In order to determine whether the PCI had any effect on tumoral growth, the growth of subcutaneous tumors induced in nude mice, whether treated with PCI or not, was followed over a period of time. The detailed protocol was the following:
1. 10^7 Capan-1 cells were dissolved in 100 μL of DMEM and injected subcutaneously to the mice. 19 mice were inoculated and divided into 4 groups.
Control group: consisting of 5 mice. They were treated with PBS.
Group 1: also consisting of 5 mice. They were treated with 0.11 mg/mL of PCI dissolved in PBS.
Group 2: consisting of 5 mice to which a treatment with a dose of 0.6 mg/mL of PCI was applied.
Group 3: consisting of 4 mice for which, in this case, the dose of PCI was 1.2 mg/mL of PCI.
2. 12 days after the inoculation of the cells, the daily treatment with PBS or PCI by direct injection in the tumor of 100 μL of such solutions was started. At this moment, the tumors were palpable and measured, at least, 2 mm of diameter.
3. During the treatment, the size of the tumor was determined every two days using a Vernier calibrator which made it possible to measure the size of the tumor in all its dimensions. The volume of the tumor was determined by means of the following formula: [formula]
As the volumes of the tumors became known, the relative growth of such tumors was calculated every 7 days using the following formula: [formula]
Once the treatment had finished, the duplication time of the tumor (td) was calculated for each treatment with the following formula: [formula]
where d corresponds to the days of treatment, Vt to the volume of the tumor at the end of the treatment and V0 to the volume at the beginning of the treatment.

The subject of a further experiment is Capan-1 cell line. In words: Proliferation of Capan-1 cells pretreated with PCI. The experiment is classed as cell-based, human. Conditions: pretreatment 50 μg/mL of PCI, 28-34 days; treatment 5-18 days. As for the experimental part: In the case of the Capan-1 cell line, two different tests and which are described as follows were carried out:
1. 5,000 cells were seed in 2 wells of a plate of 12 wells. One of the wells was grown with medium (non-pretreated cells), and the other with medium with 50 μg/mL of PCI (pretreated cells). The cells were kept in such conditions for the period of time that is indicated in the results section as time of pretreatment.
2. Twice a week, the medium of the wells was replaced by fresh medium with or without PCI, and each time that in any of the wells confluence was reached, the cells were trypsinized and 1/10 of them was placed again in the original well, the other cells being discarded or frozen.
3. Once the desired time of pretreatment elapsed, the cells were trypsinized and counted, being employed to start proliferation tests such as those described in Section 4.B.2.1. The number of cells that was placed per well in the proliferation plate (of 96 wells) was 2,000, 7 replicas being put for each treatment. The cells underwent treatment with or without various PCI concentrations.
4. Once the treatment time elapsed, the number of cells per well was estimated as previously described in Section 4.B.2.a.

Setting [3] is: Dose 0.55 (mg(kg/day), s.c., days 0-32).
[4] abbreviates: Dose 3 (mg(kg/day), s.c., days 0-32).
The mark [5] stands for this setting: Dose 6 (mg(kg/day), s.c., days 0-32).

Positions of bridges follow the written chain, without caps; N, C: chain ends. No end group written: not given here.

“PCI: potato carboxypeptidase inhibitor, isoform IIa, obtained by recombinant DNA techniques in E. coli (SEQ ID NO.2) (EQHADPICNKPCKTHDDCSGAWFCQACWNSARTCGPYVG; disulfide 12-27, 18-34, 8-24)”: the “stimulation of the migration compared to the control” value in experiment [1] was 3.5 times. Moreover, the “number of cells that passed through the Matrigel membrane” value in experiment [1] (17 h (control 29 cells)) is 110 cells. Further, the entries for the “Duplication time (days) of the tumor” value in experiment [2] (0.11 mg/mL PCI), in experiment [2] (0.6 mg/mL PCI) and in experiment [2] (1.2 mg/mL PCI) were 9.06 days, 19.49 days and 5.78 days, respectively. Further, the “Optimal T/C %” value in experiment [2] (setting [3]) was determined as 39.79%; in experiment [2] (setting [4]), 21.36%; in experiment [2] (setting [5]), 69.4%. Moreover, the “SGD (Td treated- Td control/Td control)” value in experiment [2] (setting [3]) is 1.09; in experiment [2] (setting [4]), 3.51; in experiment [2] (setting [5]), 0.34. Further, the SGD class result was “+” in experiment [2] (setting [3]), “+++ (<3 expressed as +++)” in experiment [2] (setting [4]) and “− (SGD < 1 expressed as −)” in experiment [2] (setting [5]). The “days of treatment until tumors start bleeding in the process of injection” value in experiment [2] (animals treated with PCI (control three days)) is 8 days. The “activity in the reduction of the growth of the tumors” value in experiment [2] (dose of 0.11 mg/mL) was “moderate activity (T/C < 50% moderate activity)”; in experiment [2] (dose of PCI of 0.6 mg/mL), “significant activity (T/C < 25%, significant activity)”. Moreover, the “duplication time of the tumor relative to the control tumors” value in experiment [2] (dose of 0.11 mg/mL of PCI) was “twice as high”. Further, the “duplication time of the tumor relative to the control group” value in experiment [2] (doses of 0.6 mg/mL) worked out at 4.5 times. The “final number of cells, pretreated cells cultivated afterwards in absence of PCI vs non-pretreated cells” value with Capan-1 cell line is on record as “approximately half”.

These data come from patent publication US6379959B1, “Metalocarboxypeptidase inhibitors and derived molecules used as antitumor agents” (Universitat Autonoma de Barcelona, priority 1996, dated 2002).
